Assay results published in patent publication US9657047B2, “Crystallization of epirubicin hydrochloride” (MEDAC GESELLSCHAFT FÜR KLINISCHE SPEZIALPRÄPARATE MBH, priority 2011, dated 2017).

Assay: test of thermal stability (storage at 40° C.)
Assay type: physicochemical
Settings: two weeks and three weeks; for decomposition on storage (thermal stability): crystals stored at 40° C. for one week
Description: The produced crystalline epirubicin hydrochloride was subjected to a test of thermal stability. For this purpose, the produced crystals were stored at a temperature of 40° C. for a time period of one week, two weeks, and three weeks. […] Instead, the crystals remained in unchanged form.
The epirubicin hydrochloride produced was subjected to a test of thermal stability. For this purpose, the epirubicin hydrochloride was stored at a temperature of 40° C. for a time period of one week, two weeks, and three weeks. Within this time frame, a thermal decomposition of epirubicin hydrochloride amplified with increasing storage period by two percent respectively was observed.

| Structure (SMILES) | thermal decomposition amplified with increasing storage period (stored at 40° C. for one week, increase per storage period) | decomposition on storage (thermal stability) |
| --- | --- | --- |
| COc1cccc2c1C(=O)c1c(O)c3c(c(O)c1C2=O)C[C@@](O)(C(=O)CO)C[C@@H]3O[C@H]1C[C@H](N)[C@@H](O)[C@H](C)O1.Cl [Comparison Example 1, epirubicin hydrochloride] | two | – |
| COc1cccc2c1C(=O)c1c(O)c3c(c(O)c1C2=O)C[C@@](O)(C(=O)CO)C[C@@H]3O[C@H]1C[C@H](N)[C@@H](O)[C@H](C)O1.Cl [Example 1, epirubicin hydrochloride] | – | no decomposition |
| COc1cccc2c1C(=O)c1c(O)c3c(c(O)c1C2=O)C[C@@](O)(C(=O)CO)C[C@@H]3O[C@H]1C[C@H](N)[C@@H](O)[C@H](C)O1.Cl [Example 2, epirubicin hydrochloride] | – | no decomposition |
